≈ marks a conversion by molar mass, not a printed value.
Experiment: Solubility in different solvents (supersaturated solution, filtrate analysed by HPLC)
Details: for solubility at 30 min: thermodynamic from solid
Method: A supersaturated solution was prepared by adding 20 mg of the hydrophobic camptothecin compound (camptothecin or SN-38) to 5 ml of ethanol, acetonitrile, acetone, ethyl acetate, chloroform dimethyl sulfoxide, or distilled water, followed by ultrasonic treatment for 30 minutes. The prepared supersaturated solution was filtered through a 0.45-μm filter, and a filtrate was properly diluted, followed by HPLC analysis.
The prepared supersaturated solution was filtered through a 0.45-μm filter, and a filtrate was properly diluted, followed by HPLC analysis.
HPLC (Agilent 1200 Series, USA) conditions were as follows. The column was CapcellPak C8 (5 m, 4.6 mm×25 cm, Shiseido); the mobile phase was a mixed solvent of methanol:acetonitrile:buffer (2.8 g/L sodium dihydrogenphosphate, 1.8 g/L 1-octanesulfonate aqueous solution)=17:24:59 (v/v); the flow rate was 1.5 mL/min; the measurement wavelength was UV 255 nm; and the sample injection amount was 15 μL.

CCc1c2c(nc3ccc(O)cc13)-c1cc3c(c(=O)n1C2)COC(=O)[C@]3(O)CC [SN-38, 7-ethyl-10-hydroxy-camptothecin]
Solubility of hydrophobic camptothecin-based compound (Acetonitrile): 402 µg/mL | Solubility of hydrophobic camptothecin-based compound (Chloroform): 9 µg/mL | Solubility of hydrophobic camptothecin-based compound (Dimethyl sulfoxide): 2263 µg/mL | Solubility of hydrophobic camptothecin-based compound (Distilled water): <1 µg/mL | Solubility of hydrophobic camptothecin-based compound (Ethanol): 779 µg/mL | Solubility of hydrophobic camptothecin-based compound (Ethyl acetate): 78 µg/mL

CC[C@@]1(O)C(=O)OCc2c1cc1n(c2=O)Cc2cc3ccccc3nc2-1 [Camptothecin, camptothecin]
solubility at 30 min (acetonitrile, organic solvent or mixture): 101 µg/mL (≈ 290 µM) | solubility at 30 min (chloroform, organic solvent or mixture): 2 µg/mL (≈ 5.74 µM) | solubility at 30 min (dimethyl sulfoxide, organic solvent or mixture): 3290 µg/mL (≈ 9450 µM) | solubility at 30 min (distilled water, water): 9 µg/mL (≈ 25.8 µM) | solubility at 30 min (ethanol, organic solvent or mixture): 149 µg/mL (≈ 428 µM) | solubility at 30 min (ethyl acetate, organic solvent or mixture): 134 µg/mL (≈ 385 µM)

Reference: US11793803B2, “Particle and pharmaceutical composition comprising an insoluble camptothecin compound with double core-shell structure and method for manufacturing the same” (SN BIOSCIENCE INC., priority 2017, dated 2023)
